Test results reported in PMC5064002, “Sintokamide A Is a Novel Antagonist of Androgen Receptor That Uniquely Binds Activation Function-1 in Its Amino-terminal Domain” (The Journal of Biological Chemistry, 2016).

Assays:
Format in all cases: cell-based
[1] = molecular target: T1, AR interaction with STAT3 (Homo sapiens, UniProt P10275, T878A); assay: Co-immunoprecipitation of AR with STAT3 in LNCaP cells; settings: EPI-002 35 μM or SINT1 20 μM, 50 ng/ml IL-6 6 h
T1 construct: endogenous in cells; host or cells: LNCaP
T1 sequence (P10275 1-920 T878A): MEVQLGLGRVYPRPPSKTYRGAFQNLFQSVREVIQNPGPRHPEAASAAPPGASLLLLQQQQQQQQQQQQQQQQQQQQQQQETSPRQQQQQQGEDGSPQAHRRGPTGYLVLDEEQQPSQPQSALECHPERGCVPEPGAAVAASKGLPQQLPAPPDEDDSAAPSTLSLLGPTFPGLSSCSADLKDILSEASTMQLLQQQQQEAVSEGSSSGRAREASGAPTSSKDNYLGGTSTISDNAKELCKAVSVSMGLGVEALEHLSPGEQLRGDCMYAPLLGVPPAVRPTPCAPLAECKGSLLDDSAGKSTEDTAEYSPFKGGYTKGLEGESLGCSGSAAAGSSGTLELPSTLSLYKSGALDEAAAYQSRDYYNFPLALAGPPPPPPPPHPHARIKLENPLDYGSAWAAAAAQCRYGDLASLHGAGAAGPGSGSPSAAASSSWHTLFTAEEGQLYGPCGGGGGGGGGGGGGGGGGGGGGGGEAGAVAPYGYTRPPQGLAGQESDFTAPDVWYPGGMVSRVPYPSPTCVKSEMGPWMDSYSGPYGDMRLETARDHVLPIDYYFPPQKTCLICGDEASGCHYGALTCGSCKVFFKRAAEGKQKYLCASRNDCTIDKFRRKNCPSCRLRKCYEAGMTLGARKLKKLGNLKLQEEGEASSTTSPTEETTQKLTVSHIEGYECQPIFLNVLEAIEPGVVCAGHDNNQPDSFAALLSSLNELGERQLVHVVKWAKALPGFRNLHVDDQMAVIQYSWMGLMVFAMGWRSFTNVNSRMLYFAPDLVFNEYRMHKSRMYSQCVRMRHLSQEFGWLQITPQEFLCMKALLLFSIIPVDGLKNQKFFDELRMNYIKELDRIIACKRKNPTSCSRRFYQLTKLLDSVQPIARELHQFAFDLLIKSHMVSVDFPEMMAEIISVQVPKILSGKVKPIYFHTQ
Method: LNCaP cells were preincubated with EPI-002 (35 μM), SINT1 (20 μM), or DMSO (vehicle control) for 1 h before treatment for 6 h with 50 ng/ml IL-6. Whole cell lysates were prepared from harvested cells in modified radioimmune precipitation assay buffer. Cell lysates were precleared with 2 μg of normal mouse IgG and 20 μl of Protein A/G PLUS-agarose beads (Santa Cruz Biotechnology) to remove nonspecific bead binding. Total STAT3 was immunoprecipitated with 10 μg of antibody against STAT3 (124H6) or 10 μg of normal mouse IgG as a negative control followed by probing the immunoblot with anti-AR antibody (AR-N20; 1:1000) and anti-STAT3 antibody (124H6; 1:1000) and normalizing to levels of β-actin (1:10,000) as loading controls. The input lanes were loaded with 5 μg of the starting cell lysate. The relative density of AR for each immunoprecipitated sample was quantified by ImageJ software and normalized to levels of STAT3 pulled down.

[2] = tested on: LNCaP cells; assay: Cell proliferation (BrdU incorporation), LNCaP; settings: 0.1 nM R1881, 72 h
Method: Cells were pulse-labeled with 10 μM BrdU for 2 h. Cells were fixed, and BrdU-labeled cells were identified with anti-BrdU-peroxidase (Roche Applied Science). BrdU incorporation was measured at 570 nm using a VersaMax ELISA microplate reader (Molecular Devices). At least three independent experiments with six technical replicates were analyzed, and average values are indicated.

[3] = molecular target: T2, AR-V567es (Homo sapiens, UniProt P10275); assay: Transcriptional activity of AR splice variant, PB-luciferase in COS-1 cells; settings: for AR-V567es transcriptional activities (PB-luciferase): COS-1, 20 μM SINT1, 25 μM EPI-002
T2 construct: expressed in transfected cells; host or cells: COS-1
T2 sequence (P10275 with tags, fused parts or gaps limits assumed): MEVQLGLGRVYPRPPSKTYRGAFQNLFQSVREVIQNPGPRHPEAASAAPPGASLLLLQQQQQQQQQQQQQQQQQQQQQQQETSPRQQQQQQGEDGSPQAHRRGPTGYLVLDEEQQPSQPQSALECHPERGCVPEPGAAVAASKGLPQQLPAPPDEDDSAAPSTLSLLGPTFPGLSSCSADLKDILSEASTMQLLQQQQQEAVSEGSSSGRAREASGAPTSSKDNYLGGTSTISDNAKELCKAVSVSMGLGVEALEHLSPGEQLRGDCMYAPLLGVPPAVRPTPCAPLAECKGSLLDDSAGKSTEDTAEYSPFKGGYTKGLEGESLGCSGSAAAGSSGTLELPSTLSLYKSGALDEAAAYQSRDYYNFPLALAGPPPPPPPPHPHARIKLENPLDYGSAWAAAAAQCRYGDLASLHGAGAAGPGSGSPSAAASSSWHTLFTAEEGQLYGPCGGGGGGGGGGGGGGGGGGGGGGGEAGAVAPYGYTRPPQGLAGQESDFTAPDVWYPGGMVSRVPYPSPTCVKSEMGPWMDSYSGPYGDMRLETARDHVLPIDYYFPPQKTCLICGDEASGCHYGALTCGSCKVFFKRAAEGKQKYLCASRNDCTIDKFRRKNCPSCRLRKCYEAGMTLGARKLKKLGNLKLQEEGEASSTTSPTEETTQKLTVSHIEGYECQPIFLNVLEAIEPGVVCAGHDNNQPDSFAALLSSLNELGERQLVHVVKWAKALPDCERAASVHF
Method: […]. Levels of expression of AR variant were determined by Western blotting using 10 μg of total protein extracted from same plates (3 wells per condition) using AR-N20 antibody (1:1000) and goat anti-rabbit HRP-conjugated secondary antibody (Santa Cruz Biotechnology; 1:10,000).

Row | Compound | interaction between AR and STAT3 [1] | androgen-induced proliferation of LNCaP cells [2] | AR-V567es transcriptional activities (PB-luciferase) [3] | levels of AR-V567es protein ([3]; COS-1, Western blot)
1 | CC(C)(c1ccc(OC[C@H](O)CO)cc1)c1ccc(OC[C@H](O)CCl)cc1 [EPI-002, reference compound] | inhibited interaction | inhibited | significantly inhibited | –
2 | CCC(=O)NC(CC(C)C(Cl)(Cl)Cl)C(=O)N1C(=O)C=C(OC)C1CC(C)C(Cl)Cl (stereo not shown) [SINT1, Sintokamide A] | did not | inhibited | significantly inhibited | not decreased
